Measured values reported in patent US12398097B2, “WDR5-MYC inhibitors” (Vanderbilt University, priority 2019, dated 2025).
pKi: −log10 of the molar value.

These molecules were tested against WDR5 (Homo sapiens, UniProt P61964) (assay: Competition-based fluorescence polarization anisotropy assay). Conditions: binding to WDR5; displacement of FITC-labeled small molecule probe (analogous to Example J2 or HCH-25) or peptide probe FITC-AHx-SEEEIDVVSV; pH 6.0; Ki converted from IC50.
Method in brief: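 Ki values derive from displacement of either a fluorescent small-molecule probe or a FITC-peptide probe from WDR5, monitored by fluorescence polarization. Assay run at pH 6.0 in 200 mM phosphate with 300 mM NaCl, 0.5 mM TCEP and 0.1% Chaps.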
`O=C(O)c1c(O)c(NS(=O)(=O)c2cc(Br)ccc2O)cc(-c2ccsc2)c1F` [Example J199, 3-((5-Bromo-2-hydroxyphenyl)sulfonamido)-6-fluoro-2-hydroxy-5-(thiophen-3-yl)benzoic acid] was tested, and the pKi was 6.19.
`COc1ccc(Br)cc1S(=O)(=O)Nc1cc(Cl)cc(NC(C)=O)c1O` [Example J200, N-(3-((5-Bromo-2-methoxyphenyl)sulfonamido)-5-chloro-2-hydroxyphenyl)acetamide] showed a pKi of 4.16.
For `CC(C)(C)c1cc(NS(=O)(=O)c2cc(Br)ccc2O)c(O)c(C(=O)O)c1` [Example J201, 3-((5-Bromo-2-hydroxyphenyl)sulfonamido)-5-(tert-butyl)-2-hydroxybenzoic acid], the pKi was 6.15.
`CNC(=O)c1cc(C(C)(C)C)cc(NS(=O)(=O)c2cc(Br)ccc2O)c1O` [Example J202, 3-((5-Bromo-2-hydroxyphenyl)sulfonamido)-5-(tert-butyl)-2-hydroxy-N-methylbenzamide] showed a pKi of 5.97.
In the case of `N#CC1(c2cc(NS(=O)(=O)c3cc(Br)ccc3O)c(O)c(C(=O)O)c2)CCC1` [Example J203, 3-((5-Bromo-2-hydroxyphenyl)sulfonamido)-5-(1-cyanocyclobutyl)-2-hydroxybenzoic acid], the pKi was 7.40.
Work on `COc1ccc(Br)cc1S(=O)(=O)Nc1cc(C2(C#N)CCC2)cc(C(=O)O)c1O` [Example J205, 3-((5-Bromo-2-methoxyphenyl)sulfonamido)-5-(1-cyanocyclobutyl)-2-hydroxybenzoic acid] yielded a pKi of 7.30.
With `N#CC1(c2cc(NS(=O)(=O)c3cc(Br)cc(Cl)c3O)c(O)c(C(=O)O)c2)CCC1` [Example J206, 3-((S-Bromo-3-chloro-2-hydroxyphenyl)sulfonamido)-5-(1-cyanocyclobutyl)-2-hydroxybenzoic acid] the pKi was 7.70.
For `COc1cc(Cl)c(Br)cc1S(=O)(=O)Nc1cc(C2(C#N)CCC2)cc(C(=O)O)c1O` [Example J207, 3-((5-Bromo-4-chloro-2-methoxyphenyl)sulfonamido)-5-(1-cyanocyclobutyl)-2-hydroxybenzoic acid], the pKi was 6.66.
For `CNC(=O)c1cc(C2(C#N)CCC2)cc(NS(=O)(=O)c2cc(Br)ccc2O)c1O` [Example J208, 3-((5-Bromo-2-hydroxyphenyl)sulfonamido)-5-(1-cyanocyclobutyl)-2-hydroxy-N-methylbenzamide], the pKi was 6.41.
`CNC(=O)c1cc(C2(C#N)CCC2)cc(NS(=O)(=O)c2cc(Br)ccc2OC)c1O` [Example J210, 3-((5-Bromo-2-methoxyphenyl)sulfonamido)-5-(1-cyanocyclobutyl)-2-hydroxy-N-methylbenzamide] was tested, and the pKi was 6.41.
In the case of `CNC(=O)c1cc(C2(C#N)CCC2)cc(NS(=O)(=O)c2cc(Br)cc(Cl)c2O)c1O` [Example J211, 3-((5-Bromo-3-chloro-2-hydroxyphenyl)sulfonamido)-5-(1-cyanocyclobutyl)-2-hydroxy-N-methylbenzamide], the pKi was 7.30.
With `CNC(=O)c1cc(C2(C#N)CCC2)cc(NS(=O)(=O)c2cc(Br)cc(C)c2O)c1O` [Example J212, 3-((5-Bromo-2-hydroxy-3-methylphenyl)sulfonamido)-5-(1-cyanocyclobutyl)-2-hydroxy-N-methylbenzamide] the pKi was 6.59.
With `CCc1cc(Br)cc(S(=O)(=O)Nc2cc(C3(C#N)CCC3)cc(C(=O)NC)c2O)c1O` [Example J213, 3-((5-Bromo-3-ethyl-2-hydroxyphenyl)sulfonamido)-5-(1-cyanocyclobutyl)-2-hydroxy-N-methylbenzamide] the pKi was 4.91.
Work on `CNC(=O)c1cc(C2(C#N)CCC2)cc(NS(=O)(=O)c2cc(Br)cc(OC(F)(F)F)c2O)c1O` [Example J214, 3-((5-Bromo-2-hydroxy-3-(trifluoromethoxy)phenyl)sulfonamido)-5-(1-cyanocyclobutyl)-2-hydroxy-N-methylbenzamide] yielded a pKi of 6.41.
`CNC(=O)c1cc(C2(C#N)CCC2)cc(NS(=O)(=O)c2cc(Cl)cc(Cl)c2O)c1O` [Example J216, 5-(1-Cyanocyclobutyl)-3-((3,5-dichloro-2-hydroxyphenyl)sulfonamido)-2-hydroxy-N-methylbenzamide] showed a pKi of 6.77.
Work on `CNC(=O)c1cc(C2(C#N)CCC2)cc(NS(=O)(=O)c2cc(Br)cc3cccnc23)c1O` [Example J217, 3-((6-Bromoquinoline)-8-sulfonamido)-5-(1-cyanocyclobutyl)-2-hydroxy-N-methylbenzamide] yielded a pKi of 6.38.
Molecule `N#CC1(c2cc(NS(=O)(=O)c3cc(Br)ccc3O)c(O)c(C(N)=O)c2)CCC1` [Example J218, 3-((5-Bromo-2-hydroxyphenyl)sulfonamido)-5-(1-cyanocyclobutyl)-2-hydroxybenzamide] has a pKi of 5.82.
Molecule `COCCNC(=O)c1cc(C2(C#N)CCC2)cc(NS(=O)(=O)c2cc(Br)ccc2O)c1O` [Example J219, 3-((5-Bromo-2-hydroxyphenyl)sulfonamido)-5-(1-cyanocyclobutyl)-2-hydroxy-N-(2-methoxyethyl)benzamide] has a pKi of 6.36.
In the case of `N#CC1(c2cc(NS(=O)(=O)c3cc(Br)ccc3O)c(O)c(C(=O)NCC3CCCO3)c2)CCC1` (centres unmarked) [Example J220, 3-((5-Bromo-2-hydroxyphenyl)sulfonamido)-5-(1-cyanocyclobutyl)-2-hydroxy-N-((tetrahydrofuran-2-yl)methyl)benzamide], the pKi was 5.99.
`COC1CCN(C(=O)c2cc(C3(C#N)CCC3)cc(NS(=O)(=O)c3cc(Br)ccc3O)c2O)C1` (centres unmarked) [Example J221, 5-Bromo-N-(5-(1-cyanocyclobutyl)-2-hydroxy-3-(3-methoxypyrrolidine-1-carbonyl)phenyl)-2-hydroxybenzenesulfonamide] showed a pKi of 4.56.
Molecule `N#CC1(c2cc(NS(=O)(=O)c3cc(Br)ccc3O)c(O)c(C(=O)NCc3cc[nH]c(=O)c3)c2)CCC1` [Example J222, 3-((5-Bromo-2-hydroxyphenyl)sulfonamido)-5-(1-cyanocyclobutyl)-2-hydroxy-N-((2-oxo-1,2-dihydropyridin-4-yl)methyl)benzamide] has a pKi of 6.39.
`COC1CN(C(=O)c2cc(C3(C#N)CCC3)cc(NS(=O)(=O)c3cc(Br)ccc3O)c2O)C1` [Example J223, 5-Bromo-N-(5-(1-cyanocyclobutyl)-2-hydroxy-3-(3-methoxyazetidine-1-carbonyl)phenyl)-2-hydroxybenzenesulfonamide] was tested, and the pKi was 6.37.
`N#CC1(c2cc(NS(=O)(=O)c3cc(Br)ccc3O)c(O)c(C(=O)N3CC(O)C3)c2)CCC1` [Example J224, 5-Bromo-N-(5-(1-cyanocyclobutyl)-2-hydroxy-3-(3-hydroxyazetidine-1-carbonyl)phenyl)-2-hydroxybenzenesulfonamide] was tested, and the pKi was 6.54.
For `N#CC1(c2cc(NS(=O)(=O)c3cc(Br)ccc3O)c(O)c(C(=O)NCCN3CCOCC3)c2)CCC1` [Example J225, 3-((5-Bromo-2-hydroxyphenyl)sulfonamido)-5-(1-cyanocyclobutyl)-2-hydroxy-N-(2-morpholinoethyl)benzamide], the pKi was 6.07.
In the case of `CN(C)CCNC(=O)c1cc(C2(C#N)CCC2)cc(NS(=O)(=O)c2cc(Br)ccc2O)c1O` [Example J226, 3-((5-Bromo-2-hydroxyphenyl)sulfonamido)-5-(1-cyanocyclobutyl)-N-(2-(dimethylamino)ethyl)-2-hydroxybenzamide], the pKi was 5.96.
Work on `N#CC1(c2cc(NS(=O)(=O)c3cc(Br)ccc3O)c(O)c(C(=O)Nc3nc[nH]n3)c2)CCC1` [Example J227, 3-((5-Bromo-2-hydroxyphenyl)sulfonamido)-5-(1-cyanocyclobutyl)-2-hydroxy-N-(1H-1,2,4-triazol-3-yl)benzamide] yielded a pKi of 7.30.
For `N#CC1(c2cc(NS(=O)(=O)c3cc(Br)ccc3O)c(O)c(C(=O)NCCO)c2)CCC1` [Example J228, 3-((5-Bromo-2-hydroxyphenyl)sulfonamido)-5-(1-cyanocyclobutyl)-2-hydroxy-N-(2-hydroxyethyl)benzamide], the pKi was 6.43.
`N#CC1(c2cc(NS(=O)(=O)c3cc(Br)ccc3O)c(O)c(C(=O)NCC3CCCCO3)c2)CCC1` (centres unmarked) [Example J229, 3-((5-Bromo-2-hydroxyphenyl)sulfonamido)-5-(1-cyanocyclobutyl)-2-hydroxy-N-((tetrahydro-2H-pyran-2-yl)methyl)benzamide] was tested, and the pKi was 6.07.
Work on `N#CC1(c2cc(NS(=O)(=O)c3cc(Br)ccc3O)c(O)c(C(=O)NCc3ccc(=O)[nH]c3)c2)CCC1` [Example J230, 3-((5-Bromo-2-hydroxyphenyl)sulfonamido)-5-(1-cyanocyclobutyl)-2-hydroxy-N-((6-oxo-1,6-dihydropyridin-3-yl)methyl)benzamide] yielded a pKi of 6.20.
In the case of `N#CC1(c2cc(NS(=O)(=O)c3cc(Br)ccc3O)c(O)c(C(=O)O)c2)CCCCC1` [Example J231, 3-((5-Bromo-2-hydroxyphenyl)sulfonamido)-5-(1-cyanocyclohexyl)-2-hydroxybenzoic acid], the pKi was 7.70.
`N#CC1(c2cc(NS(=O)(=O)c3cc(Br)ccc3O)c(O)c(C(N)=O)c2)CCCCC1` [Example J232, 3-((5-Bromo-2-hydroxyphenyl)sulfonamido)-5-(l-cyanocyclohexyl)-2-hydroxybenzamide] showed a pKi of 6.66.
In the case of `CNC(=O)c1cc(C2(C#N)CCCCC2)cc(NS(=O)(=O)c2cc(Br)ccc2O)c1O` [Example J233, 3-((5-Bromo-2-hydroxyphenyl)sulfonamido)-5-(1-cyanocyclohexyl)-2-hydroxy-N-methylbenzamide], the pKi was 7.00.
Molecule `N#CC1(c2cc(NS(=O)(=O)c3cc(Br)cc(Cl)c3O)c(O)c(C(=O)O)c2)CCCCC1` [Example J234, 3-((5-Bromo-3-chloro-2-hydroxyphenyl)sulfonamido)-5-(1-cyanocyclohexyl)-2-hydroxybenzoic acid] has a pKi of 7.70.
Work on `N#CC1(c2cc(NS(=O)(=O)c3cc(Br)cc(Cl)c3O)c(O)c(C(N)=O)c2)CCCCC1` [Example J235, 3-((5-Bromo-3-chloro-2-hydroxyphenyl)sulfonamido)-5-(1-cyanocyclohexyl)-2-hydroxybenzamide] yielded a pKi of 7.10.
Work on `CNC(=O)c1cc(C2(C#N)CCCCC2)cc(NS(=O)(=O)c2cc(Br)cc(Cl)c2O)c1O` [Example J236, 3-((5-Bromo-3-chloro-2-hydroxyphenyl)sulfonamido)-5-(1-cyanocyclohexyl)-2-hydroxy-N-methylbenzamide] yielded a pKi of 6.62.
